Reference: patent US9066948B2, “Oxadiazolo[3,2-a]pyrimidines and thiadiazolo[3,2-a]pyrimidines” (THE UNITED STATES OF AMERICA AS REPRESENTED BY THE …, priority 2010, dated 2015)

Test system: washed platelets
Test: Platelet adhesion/aggregation to collagen
Format: cell-based, human
Method: Washed platelets are prepared as per the primary screening assay, suspended in HBMT containing 1 mM MgCl2 (platelet adhesion to collagen) or 2 mM CaCl2/1 mM MgCl2 (platelet adhesion to fibrinogen) and adjusted to a count of 250×10^9/L. HEK293 cells stably expressing normal human αVβ3 or normal human αIIbβ3 are suspended in HBMT containing either 1 mM MgCl2 (HEK293 cells expressing αVβ3 for adhesion to vitronectin) or 2 mM CaCl2/1 mM MgCl2 (HEK293 cells expressing αIIbβ3 for adhesion to fibrinogen); the cell counts are adjusted to 10^6/mL. Polystyrene 96-well microtiter plates (Nunc) are coated with either fibrinogen (50 μg/mL), vitronectin (5 μg/mL), or collagen (33 μg/mL, rat tail type 1; Becton Dickinson) for 1 hour, and blocked with HBMT for at least 1 hour. Platelets and cells are treated with the compound of Example 27 of the current invention or 2-ethyl-7-(piperazin-1-yl)-5H-[1,3,4]thiadiazolo-[3,2-a]pyrimidin-5-one of U.S. Ser. No. 12/514,286 in the presence or absence of anti-α2β1 mAb 6F1, anti-αIIbβ3 mAb 10E5, anti-αIIbβ3 mAb 10E5+αVβ3 mAb 7E3, αVβ3-specific mAb LM609, or anti-αVβ3+αIIbβ3 mAb 7E3, for 15 minutes at 37° C. before being added to the microtiter wells. After adhering for 1 hour at either 22° C. (platelets) or 37° C. (cells), nonadherent platelets or cells are removed by washing 3 times with HBMT containing the same ion composition as the buffer used for adhesion. […] In other experiments, 8-chambered glass coverslips (Nunc) are coated with collagen (33 μg/mL) for 1 hour at 22° C. Washed platelets are allowed to adhere for 1 hour at 22° C. and the coverslips are stained with the Alexa-488-conjugated β3-specific mAb 7H2. Adherent platelets are imaged using a Zeiss LSM-510 confocal system with Axiovert 200 microscope (Carl Zeiss, Heidelberg, Germany) using a Plan-Apochromat 100/1.4 NA oil DIC objective.

**Q.** Which results are given for NCC(=O)Nc1cccc(-c2nn3c(=O)cc(N4CCNCC4)nc3s2)c1 [Example 27, 2-amino-N-(3-(5-oxo-7-(piperazin-1-yl)-5H-[1,3,4]thiadiazolo[3,2-a]pyrimidin-2-yl)phenyl)acetamide]?
**A.** inhibition of platelet adhesion/aggregation to collagen (1-100 μM): ~30%; further inhibition of adhesion/aggregation to collagen when combined with anti-αIIbβ3 antibody 10E5 (combination with mAb 10E5): does not further inhibit adhesion/aggregation; platelet adhesion to collagen, microscopic analysis (confocal microscopy of adherent platelets): does not decrease platelet adhesion to collagen
